Assay results: patent publication US12012390B2, “Flavone compounds for the treatment and prophylaxis of hepatitis B virus disease” (priority 2018, dated 2024)

The compounds below were run on HBeAg level (surrogate marker for cccDNA) in HepDES19 cells (assay: Engineered HepDES19 primary screen assay (HBeAg as surrogate marker for cccDNA)). Details: Hepatitis B virus, HepDES19, 120 h, read-out: IC50 (HBeAg) in HepDES19 primary screen assay, HepDES19 cells, 5 days incubation with compound, HBeAg by ELISA.
Type: cell-based, HBV
From the text: The assay was employed to screen for novel cccDNA inhibitors. HepDES19 is a cccDNA-producing cell line. In this cell line, HBeAg in the cell culture supernatant as surrogate marker, as HBeAg production depends on cccDNA level and activity. HepDES19 is an engineered cell line which contains a 1.1 unit length HBV genome, and pgRNA transcription from the transgene is controlled by Tetracycline (Tet). In the absence of Tet, pgRNA transcription will be induced, but HBV e antigen (HBeAg) could not be produced from this pgRNA due to very short leader sequence before the HBeAg start codon and the start codon is disrupted. Only after cccDNA is formed, the missing leader sequence and start codon mutation would be restored from the 3′-terminal redundancy of pgRNA, and then HBeAg could be synthesized. Therefore, HBeAg could be used as a surrogate marker for cccDNA (Zhou, T. et al., Antiviral Res. (2006), 72(2), 116-124; Guo, H. et al., J. Virol. (2007), 81(22), 12472-12484).
HepDES19 cells were seeded at 2×10^6 cells per T150 flask and cultured with the culture medium (Dulbecco's Modified Eagle Medium: Nutrient Mixture F-12 [DMEM-F12, Gibco Cat. 11320-82], 10% Fetal Bovine Serum [FBS, Clontech Cat. 631101], 0.1 mM Non-Essential Amino Acids Solution [NEAA, Gibco Cat. 11140-050], 50 μg/mL Penicillin-Streptomycin [PS, Invitrogen Cat. 15140-163], 500 μg/mL Geneticin [G418, Invitrogen Cat. 10131-027]) containing 3 μg/mL Tet (Sigma, Cat. 87128) for 5 days. Cells were then seeded at 4×10^6 cells per T150 in the same culture medium as described above in the absence of Tet for 8 days. Cells were then harvested and frozen at density of 2×10^6 cells per mL. For compound testing, the frozen cells were thawed and seeded into 96-well plates at a density of 6×10^4 cells per well. At 24 hrs after seeding, half log serial dilutions of compounds made with Dimethyl sulfoxide (DMSO, Sigma, Cat. D2650) were further diluted with the same culture medium as described above before they were added to the cells to reach desired final compound concentrations and 1% DMSO concentration. Plates were then incubated at 37° C. for another 5 days before measurement of HBeAg level and cell viability. Intracellular HBeAg level were measured with enzyme-linked immunosorbent assay (ELISA) kit (Shanghai Kehua Diagnostic Medical Products Co., Ltd). Cell viability was assessed using Cell Counting Kit-8 (Donjindo, Cat. CK04-20). IC50 values were derived from the dose-response curve using 4 parameter logistic curve fit method.
The compounds of the present invention were tested for their capacity to inhibit extracellular HBeAg level as described herein.
Work on O=C(O)COCCOc1ccc(-c2cc(=O)c3c(F)ccc(Cl)c3o2)cc1 [Example 37, 2-[2-[4-(8-chloro-5-fluoro-4-oxo-chromen-2-yl)phenoxy]ethoxy]acetic acid] yielded an IC50 of 8.97 µM. NC(=O)COCCOc1ccc(-c2cc(=O)c3cccc(Cl)c3o2)cc1 [Example 61, 2-[2-[4-(8-chloro-4-oxo-chromen-2-yl)phenoxy]ethoxy]acetamide] showed an IC50 of 0.144 µM. Work on O=C(O)C1CC(OCCOc2ccc(-c3cc(=O)c4cccc(Cl)c4o3)c(N3CCOCC3)c2)C1 (stereo not drawn) [Example 60, 3-[2-[4-(8-chloro-4-oxo-chromen-2-yl)-3-morpholino-phenoxy]ethoxy]cyclobutanecarboxylic acid] yielded an IC50 of 4.84 µM. O=C(O)C1CC(OCCOc2ccc(-c3cc(=O)c4cc(N5CCCC5=O)cc(Cl)c4o3)cc2)C1 (stereo not drawn) [Example 68, 3-[2-[4-[8-chloro-4-oxo-6-(2-oxopyrrolidin-1-yl)chromen-2-yl]phenoxy]ethoxy]cyclobutanecarboxylic acid] showed an IC50 of 10.1 µM. Work on O=c1cc(-c2ccc(OCCO[C@H]3C[C@@H](C(=O)O)C3)cc2)oc2c(C3CC3)cccc12 [Example 34, Cis-3-[2-[4-(8-cyclopropyl-4-oxo-chromen-2-yl)phenoxy]ethoxy]cyclobutanecarboxylic acid] yielded an IC50 of 16 µM. Cc1cccc2c(=O)cc(-c3ccc(OCCO[C@H]4C[C@@H](C(=O)O)C4)cc3)oc12 [Example 35, Cis-3-[2-[4-(8-methyl-4-oxo-chromen-2-yl)phenoxy]ethoxy]cyclobutanecarboxylic acid] was tested, and the IC50 was 13.9 µM. In the case of Cc1ccc(Cl)c2oc(-c3ccc(OCCO[C@H]4C[C@@H](C(=O)O)C4)cc3)cc(=O)c12 [Example 31, Cis-3-[2-[4-(8-chloro-5-methyl-4-oxo-chromen-2-yl)phenoxy]ethoxy]cyclobutanecarboxylic acid], the IC50 is reported as 0.78 µM. With CC(C)Oc1ccc(Cl)c2oc(-c3ccc(OCCO[C@H]4C[C@@H](C(=O)O)C4)cc3)cc(=O)c12 [Example 27, Cis-3-[2-[4-(8-chloro-5-isopropoxy-4-oxo-chromen-2-yl)phenoxy]ethoxy]cyclobutanecarboxylic acid] the IC50 was 7.68 µM. Compound O=C(O)C1CC(OCCOc2ccc(-c3cc(=O)c4ccc(C5CC5)c(Cl)c4o3)cc2)C1 (stereo not drawn) [Example 70, 3-[2-[4-(8-chloro-7-cyclopropyl-4-oxo-chromen-2-yl)phenoxy]ethoxy]cyclobutanecarboxylic acid] has an IC50 of 17.2 µM. In the case of O=C(O)C1CC(OCCOc2ccc(-c3oc4c(Cl)cccc4c(=O)c3OCc3ccccc3)cc2)C1 (stereo not drawn) [Example 65, 3-[2-[4-(3-benzyloxy-8-chloro-4-oxo-chromen-2-yl)phenoxy]ethoxy]cyclobutanecarboxylic acid], the IC50 is reported as 6.5 µM. CC(C)c1cc(-c2cc(=O)c3cccc(Cl)c3o2)ccc1OCCOC1CC(C(=O)O)C1 (stereo not drawn) [Example 48, 3-[2-[4-(8-chloro-4-oxo-chromen-2-yl)-2-isopropyl-phenoxy]ethoxy]cyclobutanecarboxylic acid] gave an IC50 of 7.68 µM. Compound O=C(O)COCCOc1ccc(-c2cc(=O)c3cccc(Cl)c3o2)cc1 [Example 9, 2-[2-[4-(8-chloro-4-oxo-chromen-2-yl)phenoxy]ethoxy]acetic acid] has an IC50 of 2.46 µM. In the case of COC(=O)[C@H]1C[C@@H](OCCOc2ccc(-c3cc(=O)c4cccc(Cl)c4o3)nn2)C1 [Example 41, Cis-methyl 3-[2-[6-(8-chloro-4-oxo-chromen-2-yl)pyridazin-3-yl]oxyethoxy]cyclobutanecarboxylate], the IC50 is reported as 12.8 µM. Compound O=C(O)C1CC(OCCOc2ccc(-c3oc4c(Cl)cccc4c(=O)c3Br)cc2)C1 (stereo not drawn) [Example 64, 3-[2-[4-(3-bromo-8-chloro-4-oxo-chromen-2-yl)phenoxy]ethoxy]cyclobutanecarboxylic acid] has an IC50 of 5.5 µM. In the case of O=C(O)C1CC(OCCOc2ccc(-c3cc(=O)c4cc(F)cc(Cl)c4o3)cc2)C1 (stereo not drawn) [Example 20, 3-[2-[4-(8-chloro-6-fluoro-4-oxo-chromen-2-yl)phenoxy]ethoxy]cyclobutanecarboxylic acid], the IC50 is reported as 0.7 µM. In the case of O=c1cc(-c2ccc(OCCO[C@H]3CC[C@@H](C(=O)O)CC3)cc2)oc2c(Cl)cccc12 (single isomer, unassigned) [Example 7-A, 4-[2-[4-(8-chloro-4-oxo-chromen-2-yl)phenoxy]ethoxy]cyclohexanecarboxylic acid], the IC50 is reported as 15.4 µM. In the case of COc1c(-c2ccc(OCCO[C@H]3C[C@@H](C(=O)O)C3)cc2)oc2c(Cl)cccc2c1=O [Example 56, Cis-3-[2-[4-(8-chloro-3-methoxy-4-oxo-chromen-2-yl)phenoxy]ethoxy]cyclobutanecarboxylic acid], the IC50 is reported as 29.6 µM. For O=C(O)COCCOc1ccc(-c2oc3c(Cl)cccc3c(=O)c2O)cc1 [Example 59, 2-[2-[4-(8-chloro-3-hydroxy-4-oxo-chromen-2-yl)phenoxy]ethoxy]acetic acid], the IC50 was 20.2 µM. With CCOC(=O)COCCOc1ccc(-c2cc(=O)c3ccc(Br)c(Cl)c3o2)cc1 [Example 71, ethyl 2-[2-[4-(7-bromo-8-chloro-4-oxo-chromen-2-yl)phenoxy]ethoxy]acetate] the IC50 was 9.3 µM. In the case of N#Cc1cc(Cl)c2oc(-c3ccc(OCCOC4CC(C(=O)O)C4)cc3)cc(=O)c2c1 (stereo not drawn) [Example 22, 3-[2-[4-(8-chloro-6-cyano-4-oxo-chromen-2-yl)phenoxy]ethoxy]cyclobutanecarboxylic acid], the IC50 is reported as 13 µM.

Same assay, conditions: read-out: IC50 (HBeAg) in HepDES19 primary screen assay; HepDES19 cells, 5 days incubation with compound, HBeAg by ELISA
O=C(O)[C@H]1C[C@H]1OCCOc1ccc(-c2cc(=O)c3cccc(Cl)c3o2)cc1 (single isomer, unassigned) [Example 5-A, 2-[2-[4-(8-chloro-4-oxo-chromen-2-yl)phenoxy]ethoxy]cyclopropanecarboxylic acid] showed an IC50 of 1.36 µM. Compound O=C(O)C1CC(OCCOc2ccc(-c3cc(=O)c4ccc(C5CC5)c(Cl)c4o3)cc2)C1 (single isomer, unassigned) [Example 70-A, 3-[2-[4-(8-chloro-7-cyclopropyl-4-oxo-chromen-2-yl)phenoxy]ethoxy]cyclobutanecarboxylic acid] has an IC50 of 19.8 µM. O=c1cc(-c2ccc(OCCO[C@H]3CC[C@@H](C(=O)O)CC3)cc2)oc2c(Cl)cccc12 (single isomer, unassigned) [Example 7-B, 4-[2-[4-(8-chloro-4-oxo-chromen-2-yl)phenoxy]ethoxy]cyclohexanecarboxylic acid] was tested, and the IC50 was 19.7 µM. For COC(=O)C1CC(OCCOc2ccc(-c3oc4c(Cl)cc(F)cc4c(=O)c3OC(F)(F)F)cc2)C1 (single isomer, unassigned) [Example 62-B, methyl 3-[2-[4-[8-chloro-6-fluoro-4-oxo-3-(trifluoromethoxy)chromen-2-yl]phenoxy]ethoxy]cyclobutanecarboxylate], the IC50 was 1.32 µM.
